Reference: patent publication US12516179B2, “Chitosan-based nanocomposite as an antimicrobial agent and corrosion inhibitor” (priority 2019, dated 2026)

Assays:
zebrafish embryos [1] = assay: Zebrafish embryo acute toxicity assay (CNLS-NCs); type: in vivo, zebrafish (AB strain); conditions: exposure 24-72 hpf
Method: We used wild type zebrafish embryos (AB strain) in our study. For detailed information about our zebrafish aquatic system (Aquaneering, USA), original source of the zebrafish, zebrafish culture, mating protocol, and animal protocol guidelines, the reader is advised to visit the following articles. For the acute toxicity assay, at 24-hours post fertilization (hpf), embryos were dechorionated as described in. Briefly, E3 media were removed and 0.5 mg/mL of pronase enzyme (Sigma, Germany) in 10 mL PTU-E3 media was added and incubated for 10 min at 28° C. until the chorion become soft. Then, embryos were washed 2-3 times with PTU-E3 medium until the embryos were released and free from the chorion. […] The mortality rate and teratogenicity (morphological deformities) were observed and recorded at 2-time point intervals (48 and 72-hpf) using a standard stereo microscope (Zeiss, Germany). The teratogenic effects of both nanoparticles were determined based on the normal embryo morphology of the negative control (FIG. 9A), and abnormal morphology [defects in body size, heart and yolk edema, scoliosis, pigmentation, and movement problem (FIG. 9B)] of the positive control. Teratogenicity was scored at 72-hpf by calculating the number of dead and deformed embryos over the total number of […] embryos used in each concentration (50 embryos). […]

zebrafish embryos [2] = assay: Zebrafish embryo acute toxicity assay (CZNCs); type: in vivo, zebrafish (Danio rerio), AB strain
Method: Fertilized embryos of wild type AB zebrafish strains (Danio rerio) were collected in E3 egg medium in Petri dishes. At 3 hours post-fertilization (hpf), unfertilized and abnormal embryos were discarded. The fertilized embryos were dechorionated with pronase at 24-hpf and retained in 6 well-plates containing E3 egg medium. Next, E3 egg medium was replaced by the different concentrations of drugs to be tested.
We investigated the toxicology of CZNCs nanomaterial with an acute toxicity assay adapted by the Organization of Economic Co-operation and Development (OECD) guideline for testing chemical toxicity (No 203 and 236) and modified it for nanoparticle testing. The purified (acetic acid-free) lyophilized CZNCs nanomaterial was weighted and dissolved in DI water, then sonicated in a water bath for 15 min for several cycles until a complete homogeneous solution is achieved. Next, 24-hpf healthy dechorionated embryos were transferred to 6 well-plate containing the following treatment dissolved in E3 egg medium: (i) four different concentrations (25, 50, 100, 250 μg/mL) of CZNCs (ii) the positive control DEAB ([…]), (iii) the negative control 0.1% DMSO and then incubated at 28.5° C. for an additional 72 h until their age reached 96-hpf. Cumulative survival and mortality were recorded at 3-time point intervals (48, 72, and 96 hpf), In addition, all embryos were observed every day for any teratogenic abnormalities. […] A total of 100 embryos were used for each tested dose condition of the CZNCs, and 20 embryos for DEAB and DMSO concentrations. The toxicity assessment was expressed as a percentage of survived embryos for 96-hpf. Teratogenic score was presented as average standard error of mean. This value was calculated at every stage as the sum of different teratogenic phenotypes, expressed in percentage respect to the total number of possible teratogenic phenotypes at that precise stage of observation.

[3] = system: SRB induced corrosion on carbon steel (SS400); assay: EIS of carbon steel (SS400) coupons incubated in SRB media with CLNC / CS@LS; conditions: SRB with 5% GA
Method: The carbon steel coupons were incubated in liquid medium containing enriched SRB biomass (250 mg·VSS/L) along with modified Postage's C medium in simulated inject seawater. […] 200 ml plastic bottles were used for the incubation experiments. The coupons were incubated without CLNC to evaluate the SRB induced corrosion on carbon steel. In next stage, the optimum conditions of the nanocomposite have been verified by using different ratio nanocomposites as well as optimum concentration has been tested by using different concentrations of optimum ratio CLNC. Then the optimum concentration of CLNC were added in the incubating mixture to evaluate the corrosion inhibition imparted by the nanocomposite at different time intervals. The abiotic conditions were made by incubating coupons in same manner without any SRB and nanocomposite to differentiate the SRB induced corrosion from chemical corrosion. All incubation experiments were performed in anaerobic chamber to maintain the anaerobic condition throughout the experiments. […]
EIS analysis was carried out using Gamry potentiostat (Gamry 600+, FA, USA) using the SRB treated carbon steel coupon as a working electrode, calomel and graphite disk electrodes as reference and counter electrodes, respectively. […] The EIS measurements were recorded at an open circuit potential with a 10 mV sinusoidal signal over the frequency range of 0.01-10^5 Hz Before the EIS measurements, steady state conditions were achieved by keeping the whole setup at open circuit potential (OCP) for 30 min. Potentiodynamic polarization curves were measured by scanning the potential from −250 mV to +250 mV vs OCP at a sweep rate of 0.167 mV/s. The experimental results were analyzed by Gamry Echem Analyst software version 7.05.
The mixed SRB culture was enriched from sludge biomass obtained from an offshore oil filed in Qatar. […] The optimum concentration of CS@LS was evaluated in the range of 0-1000 μg·mL^−1 CS@LS and EIS analysis was performed after 10 days of incubation. […]

Row | SMILES | LC50 (zebrafish embryos [1]) | LOEC (zebrafish embryos [2]; 96-hpf, =>20% mortality) | cumulative mortality (zebrafish embryos [2]; DEAB 1.0 μM, 96-hpf) | cumulative mortality (zebrafish embryos [2]; DEAB at NOEC (0.1), 96-hpf) | LC50 (zebrafish embryos [2]; sigmoidal curve, 95% confidence limit) | bacterial growth [3] | Rct ([3]; 15 days) | Rf ([3]; 15 days)
1 | CCN(CC)c1ccc(C=O)cc1 [DEAB, Diethylaminobenzaldehyde] | 2500 nM | 1.0 µM | 60% | 10% | 940 nM |  |  | 
2 | O=CCCCC=O [GA, glutaraldehyde] |  |  |  |  |  | complete bacterial growth can be inhibited | 158.8 Ω·cm^2 | 136.4 Ω·cm^2
